Results on 18 compounds are retold here after patent publication US20260285888A1, “HETEROCYCLIC COMPOUND AND USE THEREOF” (OTSUKA PHARMACEUTICAL CO., LTD., priority 2023, published 2026).

One data set in a line: in vitro. The note with it: human, differentiated hl-60 cells, 300 μmol/L, about 24 hours, PMA-differentiated HL-60 cells, LDH; no-treatment 0%, cell lysis buffer 100%; read-out: cytotoxicity (%) Evaluation compound results. It is filed as cell-based, human. The method, boiled down: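 Cytotoxicity (%) from supernatant LDH activity after ~24 h treatment at 300 μmol/L final, normalised to no-treatment (0%) and lysis buffer (100%). Cells were PMA-differentiated (10 nM, ~72 h) HL-60 in 2% FBS medium; triplicate means.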

Data set [1] is described as follows: Study for confirmation of conversion to brexpiprazole in a buffer (stability of the evaluation compounds). The format is physicochemical. Particulars: in buffer, average of duplicate; for Concentration of brexpiprazole formed: 60-minute reaction sample; for Concentration of evaluation compound decreased: decrease in 60-minute vs 0-minute reaction sample. In outline: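 Compounds (final 1 μmol/L, from 100 μmol/L working solutions) incubated in buffer at 37° C. for 0 or 60 min, in duplicate, after 3 min pre-incubation of the reaction solution. Reactions stopped with acetonitrile/isopropanol (4:1) containing internal standards; compound and formed brexpiprazole quantified against 0.01–1 μmol/L calibration samples.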

As to `O=c1ccc2ccc(OCCCC[N+]3(COP(=O)([O-])OCCCOc4ccccc4)CCN(c4cccc5sccc45)CC3)cc2[nH]1` [EX 84, 4-(benzo[b]thiophen-4-yl)-1-(4-((2-oxo-1,2-dihydroquinolin-7-yl)oxy)butyl)piperazin-1-ium-1-yl)methyl (3-phenoxypropyl) phosphate], the cytotoxicity at 24 h, 300 µM in “in vitro” worked out at 1%. Moreover, in data set [1], the “Concentration of brexpiprazole formed” value stood at 0 nM and the “Concentration of evaluation compound decreased” value was 10 nM.

Regarding `O=c1ccc2ccc(OCCCC[N+]3(COP(=O)([O-])OCCOCC4CC4)CCN(c4cccc5sccc45)CC3)cc2[nH]1` [EX 52, (4-(benzo[b]thiophen-4-yl)-1-(4-((2-oxo-1,2-dihydroquinolin-7-yl)oxy)butyl)piperazin-1-ium-1-yl)methyl (2-(cyclopropylmethoxy)ethyl) phosphate], the cytotoxicity at 24 h, 300 µM in “in vitro” was -1%. In addition, in data set [1], the “Concentration of brexpiprazole formed” value worked out at 0 nM and the “Concentration of evaluation compound decreased” value is -40 nM.

Take `CCC(=O)OCOP(=O)([O-])OC[N+]1(CCCCOc2ccc3ccc(=O)[nH]c3c2)CCN(c2cccc3sccc23)CC1` [EX 120, (4-(benzo[b]thiophen-4-yl)-1-(4-((2-oxo-1,2-dihydroquinolin-7-yl)oxy)butyl)piperazin-1-ium-1-yl)methyl ((propionyloxy)methyl) phosphate]: in “in vitro”, the cytotoxicity at 24 h, 300 µM was found to be 13%. In data set [1], the “Concentration of brexpiprazole formed” value was 0 nM and the “Concentration of evaluation compound decreased” value was 50 nM.

Regarding `COCCn1nc(C(=O)OCOP(=O)([O-])OC[N+]2(CCCCOc3ccc4ccc(=O)[nH]c4c3)CCN(c3cccc4sccc34)CC2)c2ccccc21` [EX 82, (4-(benzo[b]thiophen-4-yl)-1-(4-((2-oxo-1.2-dihydroquinolin-7-yl)oxy)butyl)piperazin-1-ium-1-yl)methyl (((1-(2-methoxyethyl)-1H-indazole-3-carbonyl)oxy)methyl) phosphate], the cytotoxicity at 24 h, 300 µM in the data set “in vitro” is -2%. In addition, in data set [1], the “Concentration of brexpiprazole formed” value was determined as 0 nM and the “Concentration of evaluation compound decreased” value came out at 20 nM.

As to `COCCCOP(=O)([O-])OC[N+]1(CCCCOc2ccc3ccc(=O)[nH]c3c2)CCN(c2cccc3sccc23)CC1` [EX 49, (4-(benzo[b]thiophen-4-yl)-1-(4-((2-oxo-1,2-dihydroquinolin-7-yl)oxy)butyl)piperazin-1-ium-1-yl)methyl (3-methoxypropyl) phosphate], in “in vitro”, the cytotoxicity at 24 h, 300 µM was -7%. In data set [1], the “Concentration of brexpiprazole formed” value was 0 nM and the “Concentration of evaluation compound decreased” value amounted to 50 nM.

As to `CC(C)C(=O)OCOP(=O)([O-])OC[N+]1(CCCCOc2ccc3ccc(=O)[nH]c3c2)CCN(c2cccc3sccc23)CC1` [EX 24, (4-(benzo[b]thiophen-4-yl)-1-(4-((2-oxo-1,2-dihydroquinolin-7-yl)oxy)butyl)piperazin-1-ium-1-yl)methyl ((isobutyryloxy)methyl) phosphate], in “in vitro”, the cytotoxicity at 24 h, 300 µM is 10%. In data set [1], the “Concentration of brexpiprazole formed” value turned out to be 0 nM and the “Concentration of evaluation compound decreased” value was -110 nM.

On to `CC(C)(C)C(=O)OP(=O)([O-])OC[N+]1(CCCCOc2ccc3ccc(=O)[nH]c3c2)CCN(c2cccc3sccc23)CC1` [EX 150, (4-(benzothiophen-4-yl)-1-(4-((2-oxo-1H-quinolin-7-yl)oxy)butyl)piperazin-1-ium-1-yl)methyl 2,2-dimethylpropanoyl phosphate], for which the cytotoxicity at 24 h, 300 µM in the data set “in vitro” came out at 10%. In addition, in data set [1], the “Concentration of brexpiprazole formed” value turned out to be 0 nM and the “Concentration of evaluation compound decreased” value amounted to 110 nM.

With `O=C(OCCCOC1CCCCO1)OCOP(=O)([O-])OC[N+]1(CCCCOc2ccc3ccc(=O)[nH]c3c2)CCN(c2cccc3sccc23)CC1` (stereo not drawn) [EX 140, (4-(benzo[b]thiophen-4-yl)-1-(4-((2-oxo-1,2-dihydroquinolin-7-yl)oxy)butyl)piperazin-1-ium-1-yl)methyl ((((3-((tetrahydro-2H-pyran-2-yl)oxy)propoxy)carbonyl)oxy)methyl) phosphate], the cytotoxicity at 24 h, 300 µM in the data set “in vitro” is 9%. Moreover, in data set [1], the “Concentration of brexpiprazole formed” value stood at 0 nM and the “Concentration of evaluation compound decreased” value is -20 nM.

Consider `CC(C)(C)OC(=O)NC(C)(C)C(=O)OCOP(=O)([O-])OC[N+]1(CCCCOc2ccc3ccc(=O)[nH]c3c2)CCN(c2cccc3sccc23)CC1` [EX 128, (4-(benzo[b]thiophen-4-yl)-1-(4-((2-oxo-1,2-dihydroquinolin-7-yl)oxy)butyl)piperazin-1-ium-1-yl)methyl (((2-(tert-butoxycarbonyl)amino)-2-methylpropanoyl)oxy)methyl) phosphate], for which the cytotoxicity at 24 h, 300 µM in the data set “in vitro” is 2%. In data set [1], the “Concentration of brexpiprazole formed” value stood at 0 nM and the “Concentration of evaluation compound decreased” value was -30 nM.

Take `O=c1ccc2ccc(OCCCC[N+]3(COP(=O)([O-])OC/C=C/CO)CCN(c4cccc5sccc45)CC3)cc2[nH]1` [EX 42, (E)-(4-(benzo[b]thiophen-4-yl)-1-(4-((2-oxo-1,2-dihydroquinolin-7-yl)oxy)butyl)piperazin-1-ium-1-yl)methyl (4-hydroxybut-2-en-1-yl) phosphate]: in the data set “in vitro”, the cytotoxicity at 24 h, 300 µM worked out at 8%. For the same compound, in data set [1], the “Concentration of brexpiprazole formed” value was 0 nM and the “Concentration of evaluation compound decreased” value was 30 nM.

In the case of `CCOC(=O)CC(C)(C)CC(=O)OCOP(=O)([O-])OC[N+]1(CCCCOc2ccc3ccc(=O)[nH]c3c2)CCN(c2cccc3sccc23)CC1` [EX 32, (4-(benzo[b]thiophen-4-yl)-1-(4-((2-oxo-1,2-dihydroquinolin-7-yl)oxy)butyl)piperazin-1-ium-1-yl)methyl (((5-ethoxy-3,3-dimethyl-5-oxopentanoyl)oxy)methyl) phosphate], the cytotoxicity at 24 h, 300 µM in “in vitro” was determined as 5%. Further, in data set [1], the “Concentration of brexpiprazole formed” value turned out to be 0 nM and the “Concentration of evaluation compound decreased” value came to 10 nM.

For the compound `O=c1ccc2ccc(OCCCC[N+]3(COP(=O)([O-])OCCOCCO)CCN(c4cccc5sccc45)CC3)cc2[nH]1` [EX 93, (4-(benzo[b]thiophen-4-yl)-1-(4-((2-oxo-1,2-dihydroquinolin-7-yl)oxy)butyl)piperazin-1-ium-1-yl)methyl (2-(2-hydroxyethoxy)ethyl) phosphate], the cytotoxicity at 24 h, 300 µM in the data set “in vitro” was -6%. Besides, in data set [1], the “Concentration of brexpiprazole formed” value is 0 nM and the “Concentration of evaluation compound decreased” value was -10 nM.

Regarding `CCOCCCOP(=O)([O-])OC[N+]1(CCCCOc2ccc3ccc(=O)[nH]c3c2)CCN(c2cccc3sccc23)CC1` [EX 97, (4-(benzo[b]thiophen-4-yl)-1-(4-((2-oxo-1.2-dihydroquinolin-7-yl)oxy)butyl)piperazin-1-ium-1-yl)methyl (3-ethoxypropyl) phosphate], the cytotoxicity at 24 h, 300 µM in “in vitro” is -2%. Besides, in data set [1], the “Concentration of brexpiprazole formed” value was 0 nM and the “Concentration of evaluation compound decreased” value amounted to 90 nM.

Regarding `COCCCCOP(=O)([O-])OC[N+]1(CCCCOc2ccc3ccc(=O)[nH]c3c2)CCN(c2cccc3sccc23)CC1` [EX 50, (4-(benzo[b]thiophen-4-yl)-1-(4-((2-oxo-1,2-dihydroquinolin-7-yl)oxy)butyl)piperazin-1-ium-1-yl)methyl (4-methoxybutyl) phosphate], the cytotoxicity at 24 h, 300 µM in the data set “in vitro” was -8%. In data set [1], the “Concentration of brexpiprazole formed” value was found to be 0 nM and the “Concentration of evaluation compound decreased” value worked out at 10 nM.

Turning to `COCCOCOCCCCOP(=O)([O-])OC[N+]1(CCCCOc2ccc3ccc(=O)[nH]c3c2)CCN(c2cccc3sccc23)CC1` [EX 53, (4-(benzo[b]thiophen-4-yl)-1-(4-((2-oxo-1.2-dihydroquinolin-7-yl)oxy)butyl)piperazin-1-ium-1-yl)methyl (4-((2-methoxyethoxy)methoxy)butyl) phosphate], the cytotoxicity at 24 h, 300 µM in “in vitro” was -3%. Further, in data set [1], the “Concentration of brexpiprazole formed” value turned out to be 0 nM and the “Concentration of evaluation compound decreased” value came to 60 nM.

Take `CCC(CC)COC(=O)[C@@H](C)OP(=O)([O-])OC[N+]1(CCCCOc2ccc3ccc(=O)[nH]c3c2)CCN(c2cccc3sccc23)CC1` [EX 108, (R)-(4-(benzo[b]thiophen-4-yl)-1-(4-((2-oxo-1,2-dihydroquinolin-7-yl)oxy)butyl)piperazin-1-ium-1-yl)methyl (1-(2-ethylbutoxy)-1-oxopropan-2-yl) phosphate]: in “in vitro”, the cytotoxicity at 24 h, 300 µM is -7%. In data set [1], the “Concentration of brexpiprazole formed” value is 0 nM and the “Concentration of evaluation compound decreased” value turned out to be 80 nM.

Take `COCCOCCOCCOC(=O)OCOP(=O)([O-])OC[N+]1(CCCCOc2ccc3ccc(=O)[nH]c3c2)CCN(c2cccc3sccc23)CC1` [EX 35, (4-(benzo[b]thiophen-4-yl)-1-(4-((2-oxo-1,2-dihydroquinolin-7-yl)oxy)butyl)piperazin-1-ium-1-yl)methyl (3-oxo-2,4,7,10,13-pentaoxatetradecyl) phosphate]: in the data set “in vitro”, the cytotoxicity at 24 h, 300 µM is -9%. Besides, in data set [1], the “Concentration of brexpiprazole formed” value was 0 nM and the “Concentration of evaluation compound decreased” value was -20 nM.

On to `CCCCCCCC(=O)OC(C)OP(=O)([O-])OC[N+]1(CCCCOc2ccc3ccc(=O)[nH]c3c2)CCN(c2cccc3sccc23)CC1` (stereo not drawn) [EX 26, (4-(benzo[b]thiophen-4-yl)-1-(4-((2-oxo-1,2-dihydroquinolin-7-yl)oxy)butyl)piperazin-1-ium-1-yl)methyl (1-(octanoyloxy)ethyl) phosphate], for which, in “in vitro”, the cytotoxicity at 24 h, 300 µM was -5%. Besides, in data set [1], the “Concentration of brexpiprazole formed” value amounted to 0 nM and the “Concentration of evaluation compound decreased” value was 50 nM.
